{"source": "paper PMC9527314", "about": "“Structural insights into the binding of zoledronic acid with RANKL via computational simulations” (Frontiers in Molecular Biosciences, 2022)", "target": "T1, human RANKL trimer (Homo sapiens, UniProt O14788)", "T1 construct": "gene TNFSF11; recombinant human RANKL trimer protein from ACROBiosystems; homotrimer; amine-coupled to CM5 chip", "T1 sequence (O14788 140-317 limits assumed)": "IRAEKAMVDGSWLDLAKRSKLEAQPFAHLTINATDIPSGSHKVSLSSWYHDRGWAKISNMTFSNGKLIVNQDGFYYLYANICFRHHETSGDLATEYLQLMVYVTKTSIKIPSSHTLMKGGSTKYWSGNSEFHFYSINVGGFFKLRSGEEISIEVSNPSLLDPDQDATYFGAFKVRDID", "test": "SPR (Biacore T200), RANKL immobilised on CM5 chip, steady-state fit", "type": "binding"}
{"molecule": "O=P(O)(O)C(O)(Cn1ccnc1)P(=O)(O)O", "note": "[Zoledronic acid]", "values": [{"measurement": "Kd", "result": 228, "unit": "µM"}]}
